Holding throughout (test): Intracellular calcium mobilization (Fluo-4NW) in transfected HEK293T cells
Holding throughout (format): cell-based
What all share (details): read-out: EC50 of agonist U46619 (calcium mobilized), transiently transfected HEK293T cells, mean ± S.E
Background: Calcium assays in cells follow changes in intracellular calcium, usually with a dye or a luminescent sensor.

The target in one experiment is T1, TP A160S mutant (Homo sapiens, UniProt P21731, A160S).
T1 construct: expressed in transfected cells; HEK293T (calcium assays)
T1 sequence (P21731 1-343 A160S): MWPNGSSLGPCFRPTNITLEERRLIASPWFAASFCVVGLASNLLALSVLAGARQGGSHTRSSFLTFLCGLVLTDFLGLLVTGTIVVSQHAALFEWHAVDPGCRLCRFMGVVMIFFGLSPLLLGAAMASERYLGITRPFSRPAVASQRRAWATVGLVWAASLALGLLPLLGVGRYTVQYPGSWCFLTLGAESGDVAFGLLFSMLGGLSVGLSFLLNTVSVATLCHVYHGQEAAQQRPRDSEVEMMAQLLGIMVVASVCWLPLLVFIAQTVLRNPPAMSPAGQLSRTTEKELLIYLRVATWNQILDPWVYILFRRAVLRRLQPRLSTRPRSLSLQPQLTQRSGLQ
The protocol:
(§1) Amino acid substitutions were introduced into the synthetic TPα gene carried by the expression vector pMT4 as described previously, [29]. DNA sequences of all the mutated genes were verified by automated DNA sequencing. To minimize variations in transfection efficiency, the total amount transfected DNA was kept constant in all cases at 1 µg of DNA per 7×10^5 cells. The wild type TP or mutant genes were expressed in COS-1 cells using a DEAE-dextran based transient transfection method, [29], and in HEK293T cells using lipofectamine 2000 (Invitrogen). Except unless specified, the membranes prepared from COS-1 cells were used for radioligand binding assays and immunoblots. For intracellular calcium determination assays and immunofluorescence imaging, HEK293T cells were used. For transient transfections of HEK293T cells using the plasmid pMT4, lipofectamine 2000 (Invitrogen) mediated transfection was used as described by the manufacturer. Membranes were prepared using Buffers A and B and as described previously, [29]. The protein concentration in the resuspended membrane pellet was determined using a modified DC protein assay kit from Bio-Rad Laboratories (Hercules, CA).
(§2) Changes in intracellular calcium were measured by using the fluorescent calcium sensitive dye Fluo-4NW (Invitrogen). After 6–8 hours of transient transfection of HEK293T cells using lipofectamine 2000, 100,000 viable cells were plated into each well of a 96-well tissue culture treated BD-falcon optilux plates. Cells mock transfected with vector pMT4 alone were used as a negative control. Following 24 hours of incubation at 37°C, the media was removed and cells were incubated with the dye Fluo-4NW (Invitrogen) containing 77 µg/ml of probenecid for 1 hour, as recommended by the manufacturer. […] Dose–response curves were generated and EC50 values calculated by nonlinear regression analysis using PRISM software version 5.0 (GraphPad Software Inc, San Diego, CA) after subtracting the responses of mock-transfected cells stimulated with same concentrations of agonists.

Another experiment addresses T2, TP A160V mutant (Homo sapiens, UniProt P21731, A160V).
T2 construct: expressed in transfected cells; HEK293T (calcium assays)
T2 sequence (P21731 1-343 A160V): T1 sequence (P21731 1-343 A160S) with S160V
How it is done: as §1, §2

Another experiment deals with T3, TP G164A mutant (Homo sapiens, UniProt P21731, G164A).
T3 construct: expressed in transfected cells; HEK293T (calcium assays)
T3 sequence (P21731 1-343 G164A): T1 sequence (P21731 1-343 A160S) with S160A, G164A
The protocol: as §1, §2

Another experiment deals with T4, TP V110A mutant (Homo sapiens, UniProt P21731, V110A).
T4 construct: expressed in transfected cells; HEK293T (calcium assays)
T4 sequence (P21731 1-343 V110A): T1 sequence (P21731 1-343 A160S) with V110A, S160A
The protocol:
as §1, §2

Where a chain is given by its changes, count along the chain named.

As a reminder, the EC50 is the concentration that produces a half-maximal response.

Turning to `CCCCC[C@H](O)/C=C/[C@@H]1[C@@H](C/C=C\CCCC(=O)O)[C@H]2CO[C@@H]1C2` [U46619], the EC50 is 9.3 ± 0.3 nM on TP A160S mutant, 9.5 ± 0.2 nM on TP A160V mutant, 2.5 ± 0.2 nM at TP G164A mutant and 2.7 ± 0.2 nM on TP V110A mutant.

These data come from paper PMC3260207, “Site-Directed Mutations and the Polymorphic Variant Ala160Thr in the Human Thromboxane Receptor Uncover a Structural Role for Transmembrane Helix 4” (PLoS ONE, 2012).
